Data on four compounds can be found in article PMC6625891 (ACS infectious diseases, 2019).

Values after ≈ are worked out from the molar mass of the structure shown. Values joined by “and” are separate entries in the source; they are usually repeats but may differ in a detail not shown here. Equal entries are not always repeated. Where two headings read alike, the source gives them in different places.

One series has as its system Escherichia coli LeuRS. Conditions: read-out: IC50 (E. coli LeuRS); binds to the editing site; cited from earlier work.
Another series concerns Gram-negative pathogens. Conditions: cited from earlier work.
Series [1] has as its system Mycobacterium tuberculosis. Conditions: M. tuberculosis; cited from earlier work.
The test system of the next series is M. tuberculosis LeuRS. Conditions: read-out: M. tuberculosis LeuRS IC50; cited from earlier work.
Series [2] deals with T1, S. aureus LeuRS (saLeuRS) (Staphylococcus aureus, UniProt Q2FXH2).
T1 sequence (Q2FXH2 1-805): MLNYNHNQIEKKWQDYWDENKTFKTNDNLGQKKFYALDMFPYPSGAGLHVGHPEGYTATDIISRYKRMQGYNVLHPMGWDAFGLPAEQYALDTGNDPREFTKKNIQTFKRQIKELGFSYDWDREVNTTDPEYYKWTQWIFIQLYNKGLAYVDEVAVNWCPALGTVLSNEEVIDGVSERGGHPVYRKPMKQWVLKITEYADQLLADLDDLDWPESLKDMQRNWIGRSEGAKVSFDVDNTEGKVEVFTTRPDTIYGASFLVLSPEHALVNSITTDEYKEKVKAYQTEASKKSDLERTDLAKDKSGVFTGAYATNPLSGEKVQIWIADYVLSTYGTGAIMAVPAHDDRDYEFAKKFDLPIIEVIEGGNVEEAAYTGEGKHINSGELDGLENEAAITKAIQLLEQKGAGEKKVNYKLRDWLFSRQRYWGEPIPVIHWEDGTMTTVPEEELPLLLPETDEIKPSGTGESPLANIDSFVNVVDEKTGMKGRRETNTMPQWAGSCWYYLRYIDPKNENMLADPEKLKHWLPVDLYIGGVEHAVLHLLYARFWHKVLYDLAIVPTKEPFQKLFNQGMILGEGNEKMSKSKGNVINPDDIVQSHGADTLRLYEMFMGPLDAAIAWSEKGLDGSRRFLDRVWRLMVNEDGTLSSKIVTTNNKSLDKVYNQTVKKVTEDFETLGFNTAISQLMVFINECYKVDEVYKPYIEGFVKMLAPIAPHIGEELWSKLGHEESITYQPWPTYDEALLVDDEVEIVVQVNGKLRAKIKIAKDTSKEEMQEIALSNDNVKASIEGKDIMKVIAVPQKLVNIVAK
The series can be described thus: radiolabeled LeuRS aminoacylation assay. Type of series: biochemical.

Series [3] is described as follows: Cytotoxicity, MTT cell viability assay. The series is classed as cell-based. Conditions: monkey, vero cells.
Series [4] relates to MRSA (ATCC BAA-1762) resistant mutants. The note with it: for MIC shift: vs wild-type MRSA.
Another series deals with S. aureus. The note with it: previously reported; cited from earlier work.
The next series concerns saLeuRS. The note with it: read-out: IC50 (LeuRS); previously reported; ref 25 (Xia et al.); cited from earlier work.
Series [5] deals with MRSA (ATCC BAA-1762). Put plainly: Time-kill experiments.
Series [6] relates to MRSA (ATCC BAA-1762). Put plainly: Post-antibiotic effect. The note with it: 1 h exposure.
Series [7] concerns MRSA (ATCC BAA-1762) resistant mutants. Put plainly: microbe, parasite or virus in culture. The note with it: Staphylococcus aureus, ATCCBAA1762|MRSA, read-out: MIC of resistant colonies.
The next series deals with MRSA ATCC BAA-1762. The series can be described thus: MIC by broth microdilution. Type of series: cell-based, Staphylococcus aureus.
For another series, the system named is Vero cells. Put plainly: Cytotoxicity, MTT cell viability assay. Type of series: cell-based. The note with it: Vero cells, 24 h, MTT.

One may read the IC50 as the concentration that inhibits the measured activity by half. For the compound `NC[C@H]1OB(O)c2c(OCCCO)cccc21` [AN3365], the IC50 with Escherichia coli LeuRS is 310 nM. For the same compound, the MIC with Gram-negative pathogens is 0.5 to 4 µg/mL.
Regarding `CCOc1ccc(Cl)c2c1B(O)OC2CN` (centres unmarked) [AN6426], in series [1], the MIC was 0.13 µM (≈ 0.0314 µg/mL). In addition, in the series on M. tuberculosis LeuRS, the concentration for half-maximal inhibition (IC50) is 90 nM.
What is called CC50 is the concentration that lowers cell viability or growth by half. Low readings indicate greater toxicity to the cells, high ones lower toxicity to the cells. As to `O=[N+]([O-])c1ccc(S(=O)(=O)Nc2ccc3c(c2)B(O)OC3)cc1` [PT638], the IC50 is more than 100000 nM in series [2] and more than 200000 nM in the series on saLeuRS. Moreover, the “IC50 (saLeuRS aminoacylation)” value in [2] (7 nM saLeuRS, 20 min pre-incubation, triplicate) was “did not inhibit saLeuRS”. Also, the CC50 at 24 h in series [3] is not below 100 µg/mL. The MIC shift in [4] (mutant strain 1, D343Y saLeuRS) was 16-fold; in [4] (mutant strain 2, G303S saLeuRS), 8-fold; in series [4] (mutant strain 3, F233I saLeuRS), 8-fold. The “MIC of resistant colonies relative to parent strain” value in series [4] (three colonies picked) is reported as “at least 8 times”. The “MIC against S. aureus” value with S. aureus is less than 0.2 µg/mL. In addition, the “reduction in cell numbers over 8 h” value in the series on MRSA (ATCC BAA-1762) [5] (1 times the MIC) is recorded as 1.8 log10 cfu/mL; in the series with MRSA (ATCC BAA-1762) [5] (4 times the MIC), 2.2 log10 cfu/mL; in the series on MRSA (ATCC BAA-1762) [5] (16 times the MIC), 2.7 log10 cfu/mL. Besides, the “type of antibacterial activity in time-kill” value in the series with MRSA (ATCC BAA-1762) [5] (over the course of 8 h) is reported as “bacteriostatic”. In addition, the “duration of the post-antibiotic effect” value in the series on MRSA (ATCC BAA-1762) [6] (0.25 × MIC) was 0.2 h; in the series with MRSA (ATCC BAA-1762) [6] (4 × MIC), 1.5 h. Besides, in series [7], the MIC is not below 3.12 µg/mL.
Regarding `Nc1ccc(S(=O)(=O)Nc2ccc3c(c2)B(O)OC3)cc1` [PT662], the “fold increase in MIC relative to PT638” value in the series with MRSA ATCC BAA-1762 (MRSA ATCC BAA-1762) worked out at 8 fold. The “MIC MRSA” value in the series on MRSA ATCC BAA-1762 (MRSA ATCC BAA-1762, broth microdilution) is 3.1 µg/mL and 3.125 µg/mL. Also, the “Cytotoxicity Vero cells (IC50)” value in the series with Vero cells is not below 100 µg/mL.
